Assay results from patent US10195156B2, “Compounds and compositions for intracellular delivery of agents” (ModernaTX, Inc., priority 2015, dated 2019).
Where two headings read alike, the source gives them in different places.

Tests used:
hEPO mRNA expression = assay: Expression of hEPO in rats after intravenous administration; format: in vivo; conditions: for hEPO (pg/mL) 3 hours / hEPO (pg/mL) 6 hours / hEPO (pg/mL) 24 hours: Table 6, 0.2 mg/kg or 0.5 mg/kg; for Lipid/MC3 hEPO S.D. (rats): hEPO expression relative to MC3, S.D. rats, intravenous
Experimental: PBS (phosphate buffered saline) is used as control.
Formulations were prepared according to Table 5 and included mRNA encoding hEPO.
[…] After the 48 hour time point, livers and spleens were harvested and frozen.

[1] = pKa of nanoparticle compositions; format: physicochemical
[2] = Lipid levels in liver and spleen 48 hours after administration; format: in vivo, rats; conditions: 48 hours after administration; for concentration at 48 h: Sprague-Dawley, rat, intravenous
Experimental: Formulations were administered intravenously to rats (n=3 or 6) at a dosage of 0.2 mg/kg or 0.5 mg/kg (mpk) and hEPO levels measured at 3, 6, and 24 hour time points. After the 48 hour time point, livers and spleens were harvested and frozen.
The amount of lipid in the liver and spleen 48 hours after administration of a nanoparticle composition was also measured. […] In contrast, approximately 60% of doses including MC3 or Compound 22 remained in the liver after 48 hours. Less than 3% of the dose remained in the spleen for each composition tested.

[3] = Encapsulation efficiency of RNA (QUANT-IT RIBOGREEN RNA assay); format: physicochemical
Procedure, shortened: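 RiboGreen fluorescence (ex ~480, em ~520 nm) measured after 15 min at 37 °C on samples at ~5 μg/mL in TE, pH 7.5, ± 2% Triton X-100 solution. After blank subtraction, free RNA is given as intact-sample signal divided by disrupted-sample signal.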

[4] = Concentration of RNA in nanoparticle composition (ultraviolet-visible spectroscopy); format: physicochemical; conditions: Table 5; hEPO mRNA; 40:20:38.5:1.5 Lipid:DOPE:Chol:PEG-DMG
Experimental: Ultraviolet-visible spectroscopy can be used to determine the concentration of a therapeutic and/or prophylactic agent (e.g., RNA) in nanoparticle compositions. 100 μL of the diluted formulation in 1×PBS is added to 900 μL of a 4:1 (v/v) mixture of methanol and chloroform. After mixing, the absorbance spectrum of the solution is recorded, for example, between 230 nm and 330 nm on a DU 800 spectrophotometer (Beckman Coulter, Beckman Coulter, Inc., Brea, Calif.). The concentration of therapeutic and/or prophylactic agent in the nanoparticle composition can be calculated based on the extinction coefficient of the therapeutic and/or prophylactic agent used in the composition and on the difference between the absorbance at a wavelength of, for example, 260 nm and the baseline value at a wavelength of, for example, 330 nm.

[5] = Particle size and polydispersity index of nanoparticle compositions (Zetasizer Nano ZS); format: physicochemical
Procedure, shortened: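 Values are size and PDI readings from a Zetasizer Nano ZS. Measurements are taken in 1×PBS; zeta potential, by contrast, uses 15 mM PBS.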

IL-6 = assay: Cytokine production induced by sample formulations: IL-6; format: in vivo; conditions: Table 4; mice, i.v., 0.5 mpk, 6 hours; in pg/mL (unit assumed)
Procedure, shortened: (§1)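 Cytokine levels were quantified at 6 hours in mice given the nanoparticle compositions i.v. at 0.5 mpk. MC3 standard formulation and PBS served as comparators.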

[6] = test system: modified luciferase expression; assay: Expression of Luc in different organs (liver, lung, spleen, femur) 6 hours after intravenous administration; format: in vivo; conditions: i.v., 0.5 mpk
Experimental: The efficacy of the nanoparticle compositions presented in Tables 1, 1a, 17-1, 19-1, 20-1 and 21-1 was further evaluated by measuring the expression of modified luciferase in the liver, lung, spleen, and femur upon administration of a given composition. Formulations were administered intravenously to mice (n=3) at a dosage of 0.5 mpk and bioluminescence measured after 6 hours. The standard MC3 formulation and a PBS control were also tested.

IP-10 = assay: Cytokine production induced by sample formulations: IP-10; format: in vivo; conditions: Table 4; mice, i.v., 0.5 mpk, 6 hours; in pg/mL (unit assumed)
Procedure, shortened: as §1

[7] = test system: luciferase (Luc) mRNA expression; assay: Expression of Luc induced by sample formulations, whole-body bioluminescence after intravenous administration; format: in vivo; conditions: for Total Flux 3 hours / Total Flux 6 hours / Total Flux 24 hours: Table 2, mice, i.v., 0.5 mg/kg
Procedure, shortened: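 Read-out is whole-body bioluminescence at 3, 6 and 24 h after a single intravenous dose of 0.5 mg/kg Luc mRNA in nanoparticle formulations. Groups of n=6 mice; PBS and standard MC3 formulation as references.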

[8] = Table 1, # formulated with hEPO mRNA
[9] = Table 5, hEPO mRNA, 40:20:38.5:1.5 Lipid:DOPE:Chol:PEG-DMG
[10] = liver, read-out: Lipid in liver
[11] = spleen, read-out: Lipid in spleen
[12] = Table 1, rows without footnote mark
[13] = Table 1, rows without footnote mark (lipid:DOPE:cholesterol:PEG-DMG 40:20:38.5:1.5, Luc mRNA; MC3 standard formulation)

| pKa [1, 8] | pKa [1, 9] | concentration at 48 h [2, 10] | concentration at 48 h [2, 11] | % remaining dose in liver ([2]; liver) | % remaining dose in spleen ([2]; spleen) | EE (%) [3, 8] | EE (%) [3, 9] | Conc. [4] | PDI [5, 8] | Size (nm) [5, 8] | PDI [5, 9] | Size (nm) [5, 9] | pKa [1, 12] | IL-6 (IL-6) | SMILES | hEPO (pg/mL) 3 hours (hEPO mRNA expression; rats, i.v.) | hEPO (pg/mL) 6 hours (hEPO mRNA expression; rats, i.v.) | hEPO (pg/mL) 24 hours (hEPO mRNA expression; rats, i.v.) | Lipid/MC3 hEPO S.D. (rats) (hEPO mRNA expression) | Total Flux Liver ([6]; Table 3, mice) | also measured |
| --- | --- | --- | --- | --- | --- | --- | --- | --- | --- | --- | --- | --- | --- | --- | --- | --- | --- | --- | --- | --- | --- |
| 6.15 | 6.153 | 36800 ng/g | 3890 ng/g | 58.7% | 0.41% | 98.3% | 98.29% | 564.97 µg/mL | 0.130 | 75.4 nm | 0.13 | 75.4 nm |  |  | CCCCCCCCCCCCN(CCCCCCCCCCCC)CCN(CCCCCCCCCCCC)CCN1CCN(CCN(CCCCCCCC)CCCCCCCC)CC1 [Compound 22, N^1-(2-(4-(2-(Dioctylamino)ethyl)piperazin-1-yl)ethyl)-N^1,N^2,N^2-tridodecylethane-1,2-diamine] | 181627 pg/mL | 267680 pg/mL | 75571 pg/mL | 0.20 |  | dose remaining in the liver after 48 hours ([2]; liver): approximately 60% |
|  |  |  |  |  |  |  | 94.39% | 1264.28 µg/mL |  |  | 0.14 | 114.5 nm | 6.12 | 127 | CCCCCCCCCCCCCCN(CCCCCCCCCCCCCC)CCN1CCN(CCN(CCCCCCCCC)CCN(CCCCCCCCC)CCCCCCCCC)CC1 [Compound 20, N^1-(2-(4-(2-(Ditetradecylamino)ethyl)piperazin-1-yl)ethyl)-N^1,N^2,N^2-trinonylethane-1,2-diamine] |  | 227420 pg/mL |  |  | 1.42E+10 | Total Flux Femur ([6]; Table 3, mice, femur): 8.91E+06; Total Flux Lung ([6]; Table 3, mice): 1.46E+08; Total Flux Spleen ([6]; Table 3, mice): 6.11E+07; total flux in organs, rank or organ comparison (in words) ([6]; mice, each organ or overall): highest total flux; IP-10 (IP-10): 2080; Total Flux 3 hours [7]: 1.00E+11; Total Flux 6 hours [7]: 1.11E+11; Total Flux 24 hours [7]: 4.60E+09; EE (%) [3, 12]: 84.2%; PDI [5, 12]: 0.150; Size (nm) [5, 13]: 106.4 nm |
| 6.32 | 6.323 | 3070 ng/g | 971 ng/g | 4.22% | 0.089% | 90.2% | 90.15% | 713.00 µg/mL | 0.120 | 100.3 nm | 0.12 | 100.3 nm |  |  | CCCCCCCCCCCCN(CCCCCCCCCCCC)CCN(CCCCCCCCCCCC)CCN1CCN(CCN(CCCCCCCCCCCC)CCCCCCCCCCCC(=O)OC)CC1 [Compound 15, Methyl 12-((2-(4-(2-((2-(didodecylamino)ethyl)(dodecyl)amino)ethyl)piperazin-1-yl)ethyl)(dodecyl)amino)dodecanoate] | 103773 pg/mL | 125320 pg/mL | 67965 pg/mL | 0.095 |  |  |

Second part, the compound before the results:

| SMILES | pKa [1, 8] | pKa [1, 9] | concentration at 48 h [2, 10] | concentration at 48 h [2, 11] | % remaining dose in liver ([2]; liver) | % remaining dose in spleen ([2]; spleen) | EE (%) [3, 8] | EE (%) [3, 9] | Conc. [4] | PDI [5, 8] | Size (nm) [5, 8] | PDI [5, 9] | Size (nm) [5, 9] | pKa [1, 12] | IL-6 (IL-6) | hEPO (pg/mL) 3 hours (hEPO mRNA expression; rats, i.v.) | hEPO (pg/mL) 6 hours (hEPO mRNA expression; rats, i.v.) | hEPO (pg/mL) 24 hours (hEPO mRNA expression; rats, i.v.) | Lipid/MC3 hEPO S.D. (rats) (hEPO mRNA expression) | Total Flux Liver ([6]; Table 3, mice) | also measured |
| --- | --- | --- | --- | --- | --- | --- | --- | --- | --- | --- | --- | --- | --- | --- | --- | --- | --- | --- | --- | --- | --- |
| CCCCCCCCCCCCN(CCCCCCCCCCCC)CCN(CCCCCCCCCCCC)CCN1CCN(CCN(CCCCCCCCCCCC(=O)OC)CCCCCCCCCCCC(=O)OC)CC1 [Compound 16, Dimethyl 12,12′-((2-(4-(2-((2-(didodecylamino)ethyl)(dodecyl)amino)ethyl)piperazin-1-yl)ethyl)azanediyl)didodecanoate] | 6.28 | 6.282 | 597 ng/g | 293 ng/g | 0.79% | 0.026% | 98.2% | 98.22% | 665.11 µg/mL | 0.140 | 77.4 nm | 0.14 | 77.4 nm |  |  | 35387 pg/mL | 41720 pg/mL | 17184 pg/mL | 0.031 |  | hEPO expression in rats, comparison (in words) (hEPO mRNA expression; rats, i.v., 0.2 or 0.5 mg/kg, Tables 6, 7a): lowest hEPO expression at each time point |
| CCCCCCCCCCCCN(CCCCCCCCCCCC)CCN(CCCCCCCCCCCC)CCN1CCN(CCN(CCCCCC(=O)OCCCCC)CCCCCC(=O)OCCCCC)CC1 [Compound 14, Dipentyl 6,6′-((2-(4-(2-((2-(didodecylamino)ethyl)(dodecyl)amino)ethyl)piperazin-1-yl)ethyl)azanediyl)dihexanoate] |  | 6.308 | 3990 ng/g | 1620 ng/g | 5.54% | 0.15% |  | 98.91% | 603.76 µg/mL |  |  | 0.14 | 76.8 nm | 6.31 | 17 | 280973 pg/mL | 158520 pg/mL | 58805 pg/mL | 0.12 | 2.62E+08 | Total Flux Lung ([6]; Table 3, mice): 3.56E+06; Total Flux Spleen ([6]; Table 3, mice): 1.46E+07; IP-10 (IP-10): 209; Total Flux 3 hours [7]: 9.86E+08; Total Flux 6 hours [7]: 1.56E+09; Total Flux 24 hours [7]: 1.02E+08; Luc expression in mice compared with MC3 (in words) ([7]; Table 7a): significantly lower; EE (%) [3, 12]: 96.6%; PDI [5, 12]: 0.008; Size (nm) [5, 13]: 88.7 nm |
